Patent US20250177391A1, “INHIBITORS OF DDR1 AND DDR2 FOR THE TREATMENT OF ARTHRITIS” (President and Fellows of Harvard College, priority 2022, published 2025)
Values after ≈ are worked out from the molar mass of the structure shown. “Also recorded” adds a separate entry of the source.

Key:
DDR1 (h) = DDR1 (h) (Homo sapiens (Human), UniProt Q08345); experiment: DDR1 kinase inhibition, [γ-33P]-ATP filter assay; type: biochemical
Method: DDR1 (h) was incubated with 8 mM MOPS pH 7.0, 0.2 mM EDTA, 250 μM KKKSPGEYVNIEFG (SEQ ID NO: 1), 10 mM magnesium acetate and [γ-33P]-ATP (specific activity and concentration as required). The reaction was initiated by the addition of the Mg/ATP mix. After incubation for 40 minutes at room temperature, the reaction was stopped by the addition of phosphoric acid to a concentration of 0.5%. An aliquot of the reaction was then spotted onto a filter and washed four times for 4 minutes in 0.425% phosphoric acid and once in methanol prior to drying and scintillation counting.

DDR2 (h) = DDR2 (h) (Homo sapiens (Human), UniProt Q16832); experiment: DDR2 kinase inhibition, [γ-33P]-ATP filter assay; type: biochemical
Sequence of DDR2 (h) (Q16832 22-855): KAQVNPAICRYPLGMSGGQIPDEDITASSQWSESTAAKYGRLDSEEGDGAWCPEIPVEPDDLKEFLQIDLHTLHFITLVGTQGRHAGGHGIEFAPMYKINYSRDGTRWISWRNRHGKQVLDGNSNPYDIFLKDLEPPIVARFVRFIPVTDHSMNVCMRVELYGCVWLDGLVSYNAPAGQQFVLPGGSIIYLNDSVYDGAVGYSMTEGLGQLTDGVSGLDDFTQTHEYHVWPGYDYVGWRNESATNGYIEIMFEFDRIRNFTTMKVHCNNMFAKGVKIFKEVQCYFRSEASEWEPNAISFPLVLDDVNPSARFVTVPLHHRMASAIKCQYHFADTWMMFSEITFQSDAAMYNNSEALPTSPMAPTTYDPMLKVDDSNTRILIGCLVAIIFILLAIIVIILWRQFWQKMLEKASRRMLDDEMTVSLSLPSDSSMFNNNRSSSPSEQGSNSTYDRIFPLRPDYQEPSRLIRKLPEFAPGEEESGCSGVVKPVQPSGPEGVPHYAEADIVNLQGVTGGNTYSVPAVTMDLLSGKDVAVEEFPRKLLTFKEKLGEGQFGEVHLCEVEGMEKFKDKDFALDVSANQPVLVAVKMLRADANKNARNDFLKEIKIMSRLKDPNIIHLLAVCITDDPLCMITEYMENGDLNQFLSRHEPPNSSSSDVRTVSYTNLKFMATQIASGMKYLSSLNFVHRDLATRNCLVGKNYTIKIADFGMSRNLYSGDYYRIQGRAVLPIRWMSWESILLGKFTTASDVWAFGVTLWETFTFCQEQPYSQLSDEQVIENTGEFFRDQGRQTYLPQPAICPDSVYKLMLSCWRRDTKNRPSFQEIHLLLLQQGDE
Method: DDR2 (h) was incubated with 8 mM MOPS pH 7.0, 0.2 mM EDTA, 250 μM KKSRGDYMTMQIG (SEQ TD NO: 2), 10 mM MnCl2, 10 mM magnesium acetate and [γ-33P]-ATP (specific activity and concentration as required). The reaction was initiated by the addition of the Mg/ATP mix. After incubation for 40 minutes at room temperature, the reaction was stopped by the addition of phosphoric acid to a concentration of 0.5%. An aliquot of the reaction was then spotted onto a filter and washed four times for 4 minutes in 0.425% phosphoric acid and once in methanol prior to drying and scintillation counting.

[1] = system: 97 kinases (90 WT kinase and 7 mutants); experiment: Kinase selectivity profiling (ScanEDGE, DiscoveRx) competition binding, qPCR readout; conditions: for Selectivity Score S(1) / Selectivity Score S(10) / Selectivity Score S(35): number of hits/number of assays, excluding mutants, 1000 nM; for # of Hits, S(35) / # of Hits, S(10) / # of Hits, S(1): screened at 1000 nM; for # of Hits, S(35): kinases inhibited by >65%; for # of Hits, S(10): kinases inhibited by >90%; for # of Hits, S(1): kinases inhibited by >99%
Excerpt: (§1) Compounds that bind the kinase active site and directly (sterically) or indirectly (allosterically) prevent kinase binding to the immobilized ligand, will reduce the amount of kinase captured on the solid support. […] Screening “hits” are identified by measuring the amount of kinase captured in test versus control samples by using a quantitative qPCR method that detects the associated DNA label. Dissociation constants (Kds) for test compound-kinase interactions can be calculated by measuring the amount of kinase captured on the solid support as a function of the test compound concentration.
(§2) Kinase-tagged T7 phage strains were grown in parallel in 24-well blocks in an E. coli host derived from the BL21 strain. E. coli were grown to log-phase and infected with T7 phage from a frozen stock (multiplicity of infection=0.4) and incubated with shaking at 32° C. until lysis (90-150 minutes). The lysates were centrifuged (6,000×g) and filtered (0.2 μm) to remove cell debris. The remaining kinases were produced in HEK-293 cells and subsequently tagged with DNA for qPCR detection. Streptavidin-coated magnetic beads were treated with biotinylated small molecule ligands for 30 minutes at room temperature to generate affinity resins for kinase assays. The liganded beads were blocked with excess biotin and washed with blocking buffer (SeaBlock (Pierce), 1% BSA, 0.05% Tween 20, 1 mM DTT) to remove unbound ligand and to reduce non-specific phage binding. Binding reactions were assembled by combining kinases, liganded affinity beads, and test compounds in 1x binding buffer (20% SeaBlock, […], 0.05% Tween 20, 6 mM DTT). Test compounds were prepared as 40x stocks in 100% DMSO and directly diluted into the assay. All reactions were performed in polypropylene 384-well plates in a final volume of 0.02 mL. The assay plates were incubated at room temperature with shaking for 1 hour and the affinity beads were washed with wash buffer (1×PBS, 0.05% Tween 20). The beads were then re-suspended in elution buffer (1×PBS, 0.05% Tween […] non-biotinylated affinity ligand) and incubated at room temperature with shaking for 30 minutes. The kinase concentration in the eluates was measured by qPCR.
(§3) The compounds were screened at 1000 nM, and results for primary screen binding interactions were determined as “% Ctrl”. % Ctrl=[(test compound signal−positive control signal)/(negative control signal−positive control signal)]*100. Negative control was 100% DMSO. Test compounds were Compounds 1-4. Positive control was a control compound.
Selectivity Score or S-score is a quantitative measure of compound selectivity for DDR2. It was calculated by dividing the number of kinases that compounds bind to by the total number of distinct kinases tested, excluding mutant variants. S=number of hits/number of assays. % Ctrl was used as a potency threshold. Selectivity score values of CS analogs provided in Table 2 reflect the number of kinases inhibited by >65% (S35), >90% (S10), or 99% (S1) by Compounds 1-4.

p38-alpha = p38-alpha (Homo sapiens (Human), UniProt Q16539); experiment: Binding to p38-alpha, % of DMSO control (kinase binding screen); conditions: smaller numbers indicate stronger binding; screened at 1000 nM
Sequence of p38-alpha (Q16539 whole entry): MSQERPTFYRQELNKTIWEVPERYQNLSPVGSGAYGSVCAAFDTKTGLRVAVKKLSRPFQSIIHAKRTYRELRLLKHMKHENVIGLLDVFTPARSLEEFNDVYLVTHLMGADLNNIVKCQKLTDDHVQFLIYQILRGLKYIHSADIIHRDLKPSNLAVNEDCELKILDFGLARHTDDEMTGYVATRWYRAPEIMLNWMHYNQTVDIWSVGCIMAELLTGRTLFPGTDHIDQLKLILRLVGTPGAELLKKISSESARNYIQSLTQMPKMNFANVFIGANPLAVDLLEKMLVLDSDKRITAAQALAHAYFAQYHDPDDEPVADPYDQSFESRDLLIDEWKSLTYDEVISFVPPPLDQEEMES
Excerpt: as §1, §2, §3
Table 3 provides binding affinity scores for p38-alpha as a percent relative to DMSO control. Smaller numbers indicate stronger binding.

[2] = Solubility in pH 7.4 phosphate buffer; type: physicochemical; conditions: aqueous buffer
Stability in HBSS buffer = type: physicochemical
Stability in plasma = type: in vitro ADME; conditions: all animals
Caco-2 permeability = type: in vitro ADME; conditions: human, Caco-2; Bi-directional; read-out: Caco-2 permeability, bidirectional efflux ratio
Caco-2 = Caco-2 permeability; type: in vitro ADME
[3] = Liver S9 stability (SD rat, beagle, human), overall; type: in vitro ADME
Liver S9 stability, rat = type: in vitro ADME; conditions: SD
[4] = Liver S9 stability, human; type: in vitro ADME
Liver S9 stability, dog = type: in vitro ADME; conditions: beagle
[5] = Stability in simulated synovial fluid; type: physicochemical
[6] = PK following IV dosing in male SD rats; conditions: rat, in vivo, IV 1 mg/kg
[7] = system: articular cartilage of mouse knee joints; experiment: DMM surgery injurious mouse model of osteoarthritis, knee articular cartilage; type: in vivo; conditions: for Average articular cartilage score: treatment from 4 weeks after surgery
Method: Based on a pilot experiment,^1 the sample size of minimum 6 is required by the power analysis to achieve the specified confidence interval (95%) with at least 50% reduction of the score in the treatment group. Mouse knee joints were subjected to DMM surgery. Four weeks following the surgery, mice were treated with compound 3. Significant disparity was found in the progression of articular cartilage degeneration in knee joints with or without the treatment of compound 3 (FIG. 1).
The condition of the articular cartilage was also evaluated by the scoring system.^3 At 8 weeks after DMM surgery, the average scores for mice without and with treatment using compound 3 were 2.50 and 1.00, respectively. At 12 weeks following DMM surgery, the average scores were 4.75 for mice not treated with compound 3 and 2.83 for mice treated with compound 3. […] In addition, osteophytes and other abnormal morphology were not observed in the subchondral bone and synovial tissue in mice with or without the treatment with compound 3.

DDR2 = experiment: Protein expression of DDR2 in articular cartilage after DMM (staining); type: in vivo, mouse; conditions: 8 weeks after DMM
Excerpt: (§4) Inhibitory induction of Ddr2 and Mmp-13 in articular cartilage of knee joints was observed after treatment with the compound 3. The protein expressions of Ddr2 and Mmp-13 were examined in the articular cartilage of mouse knee joints at 8 weeks after DMM, with or without the treatment with compound 3.

Mmp-13 = experiment: Protein expression of Mmp-13 in articular cartilage after DMM (staining); type: in vivo, mouse; conditions: 8 weeks after DMM
Excerpt: as §4

Sequence of DDR1 (h) (Q08345 19-913): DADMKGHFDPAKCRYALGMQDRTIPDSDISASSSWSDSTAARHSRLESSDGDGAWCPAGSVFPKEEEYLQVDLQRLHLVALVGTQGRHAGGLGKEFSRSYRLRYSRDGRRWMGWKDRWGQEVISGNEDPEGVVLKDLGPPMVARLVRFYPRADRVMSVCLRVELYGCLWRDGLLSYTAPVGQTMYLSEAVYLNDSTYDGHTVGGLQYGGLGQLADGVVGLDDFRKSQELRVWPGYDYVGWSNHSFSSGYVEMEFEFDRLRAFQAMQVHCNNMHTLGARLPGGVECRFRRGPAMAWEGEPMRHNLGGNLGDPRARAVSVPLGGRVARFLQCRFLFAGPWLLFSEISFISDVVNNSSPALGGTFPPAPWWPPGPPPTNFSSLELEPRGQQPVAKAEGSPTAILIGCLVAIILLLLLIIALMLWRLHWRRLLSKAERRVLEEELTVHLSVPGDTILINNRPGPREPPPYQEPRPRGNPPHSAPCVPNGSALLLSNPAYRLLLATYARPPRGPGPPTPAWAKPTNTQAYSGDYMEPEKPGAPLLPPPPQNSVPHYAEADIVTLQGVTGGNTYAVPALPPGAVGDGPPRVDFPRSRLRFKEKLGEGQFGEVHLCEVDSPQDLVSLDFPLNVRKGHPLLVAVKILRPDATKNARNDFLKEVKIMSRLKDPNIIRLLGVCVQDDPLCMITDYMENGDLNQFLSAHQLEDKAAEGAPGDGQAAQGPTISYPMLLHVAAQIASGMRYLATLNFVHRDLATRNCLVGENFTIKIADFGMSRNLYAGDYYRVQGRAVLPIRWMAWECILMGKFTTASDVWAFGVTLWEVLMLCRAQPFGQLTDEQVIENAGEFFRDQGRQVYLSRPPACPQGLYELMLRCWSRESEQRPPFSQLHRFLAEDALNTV

| SMILES | IC50 (DDR1 (h)) [nM] | IC50 (DDR2 (h)) [nM] | Selectivity Score S(1) [1] | Selectivity Score S(10) [1] | Selectivity Score S(35) [1] | # of Hits, S(35) [1] | # of Hits, S(10) [1] | # of Hits, S(1) [1] | Binding affinity score for p38-alpha as percent relative to DMSO control (p38-alpha) [% Ctrl] | solubility [2] [µM] | Stability in HBSS (buffer) (Stability in HBSS buffer) [min in buffer] | Stability in plasma (Stability in plasma) | Caco-2 unidirectional permeability (in words) (Caco-2) | Liver S9 stability (in words) [3] | Stability in simulated synovial fluid [5] [days] | also measured |
| --- | --- | --- | --- | --- | --- | --- | --- | --- | --- | --- | --- | --- | --- | --- | --- | --- |
| Cc1ccc(O)cc1Nc1ccnc(Nc2cccc(S(C)(=O)=O)c2)n1 [Compound 1, 4-methyl-3-[[2-(3-methylsulfonylanilino)pyrimidin-4-yl]amino]phenol] | 13 | 260 | 0.078 | 0.244 | 0.322 | 29 | 22 | 7 | 0.5 | 16 (≈ 5.93 µg/mL) | >120 | >360 min (all | Very high | Rapid clearance | >5 | efflux ratio (Caco-2 permeability): 4.27; half-life (Liver S9 stability, rat): 20 min; half-life [4]: < 10 min; half-life (Liver S9 stability, dog): < 10 min; AUC(0-t) [6]: 122 ng·h/mL; C0 [6]: 548 ng/mL; clearance [6]: 137 mL/min/kg; half-life [6]: 19.1 min; Vd ([6]; read-out: VSS): 2.11 L/kg |
| Cc1ccc(O)cc1Nc1ccnc(Nc2ccc(C(N)=O)cc2)n1 [Compound 2, 4-[[4-(5-hydroxy-2-methyl-anilino)pyrimidin-2-yl]amino]benzamide] | 9 | 156 | 0.033 | 0.089 | 0.244 | 22 | 8 | 3 | 30 | 770 (≈ 258 µg/mL) | >120 | >360 min (all | Very high | Rapid clearance | >5 | – |
| COc1ccc(S(N)(=O)=O)cc1Nc1nccc(N(C)c2ccc(N)cc2)n1 [Compound 3, 3-[[4-(4-amino-N-methyl-anilino)pyrimidin-2-yl]amino]-4-methoxy-benzenesulfonamide] | 55 | > 3300 | 0.056 | 0.089 | 0.178 | 16 | 8 | 5 | 83 | 13.3 (≈ 5.33 µg/mL) | >120 | >360 min (all | Very high | Very stable | >5 | Cartilage damage score, treated versus untreated mice ([7]; 8 and 12 weeks after DMM): significant differences; Morphology of articular cartilage ([7]; 8 weeks after DMM surgery): localized chondrocyte clusters, but no fibrillation; also recorded: only chondrocyte clusters; Average articular cartilage score ([7]; 8 weeks after DMM surgery): 1.00; Morphology of articular cartilage ([7]; 12 weeks after DMM surgery): only localized absence of the proteoglycans; also recorded: only localized proteoglycan degradation; Average articular cartilage score ([7]; 12 weeks after DMM surgery): 2.83; Progressive process of articular cartilage degeneration ([7]; DMM-induced, mouse knee joints): Significant delay; also recorded: dramatically delayed; Osteophytes and other abnormal morphology in subchondral bone and synovial tissue ([7]; mice with or without treatment): not observed; DDR2 positive (stained) cells in articular cartilage (DDR2): dramatically reduced; also recorded: significant reduction; Mmp-13 positive (stained) cells in articular cartilage (Mmp-13): dramatically reduced; also recorded: significant reduction |
| COc1cc(Nc2nccc(Nc3ccc(N)cc3)n2)cc(S(C)(=O)=O)c1 [Compound 4, N4-(4-aminophenyl)-N2-(3-methoxy-5-(methylsulfonyl)phenyl)pyrimidine-2,4-diamine] | 66 | 1570 | 0.022 | 0.122 | 0.233 | 21 | 11 | 2 | 87 | 213 (≈ 82.1 µg/mL) | >120 | >360 min (all | – | Very stable | >5 | – |
